Values belong to the molecule of their own block, whether it stands above or below them.
Legend:
[1] = identical field strength (7T), commercial Gd(III) agent; cited from earlier work
[2] = EDTA reference value in competition experiments; cited from earlier work
[3] = In vivo MR imaging (biodistribution) after i.v. administration of Mn complexes; design: species or system mouse
Experimental: FIG. 4A. In vivo MRI in control mouse after i.v. administration of MnNTA.
FIG. 4B. MRI after i.v. administration of Mn:ETID (50 μL of 40 mM solution).
In vivo behavior was tested of two relatively strong (log K1>7) ligands for Mn(II) chelation, nitrilotriacetic acid (NTA), closely related to EDTA, and […] (3,4-DBA).
This in vivo behavior was also what is observed for the FDA-approved agent Teslascan. In the past, development of paramagnetic Mn complexes for MRI has been challenged by the inherent coordination lability of Mn(II) (e.g., Irving Williams series), resulting in the propensity of Mn(II) to be trans-metallated by other endogenous metals such as zinc in vivo. The only FDA-approved approved Mn(II) PM complex for MRI was Teslascan, which has now been discontinued. […] Contrast enhancement was therefore based on free Mn and confined to the liver.
Enhancement of the bowel is also noted but more variable, believed to represent elimination of the coordination complex from the gallbladder into the small intestine. […]
Finally, it is worth noting that free Mn is believed to be toxic neurologically if allowed to accumulate to high concentrations in certain neuronal populations. […] Since Mn accumulation in tissues is readily visualized with MRI, however, selective delivery of Mn-containing agents is easily monitored. […]

4T1 tumor = assay: Dynamic contrast enhancement of 4T1 tumor after i.v. administration; type: in vivo; details: pilot data, versus paramagnetic coordination complex alone
Experimental: FIG. 5. Dynamic contrast enhancement of 4T1 tumor after i.v. admin of 1-hydroxybisphosphonate:Mn complex linked to HSP90 inhibitor as in Scheme 1C, 25 mg/kg. Graph on left depicts relative change in T1 enhancement in tumors after labeled drug (n=5) and after Mn:ETID complex alone (n=6).
Several synthetic strategies were used for labeling small molecule drugs either directly or via polyethyleneglycol (PEG) linkers. Two lead complexes, the first with a medronate analogue (Scheme 1B) via the amine-terminated PEG linker, and the second an etidronate analogue coupled through the COOH-terminated PEG linker (Scheme 1C), have now been synthesized, characterized and studied preliminarily in vivo.

[4] = FDA-approved Mn(II) agent, prior experience; cited from earlier work

SMILES: O=C([O-])CN1CCN(CC(=O)[O-])CCN([C@H](CO)[C@H](O)CO)CCN(CC(=O)[O-])CC1.[Gd+3] (racemic) [gadobutrol]
r1 (relaxivity stated as equivalent) [1]: 5.2 mM⁻¹ s⁻¹

SMILES: O=C(O)CN(CCN(CC(=O)O)CC(=O)O)CC(=O)O [EDTA]
log K1 [2]: 26

cardiac enhancement ([3]; after i.v. administration, indicates free Mn released into blood pool): cardiac enhancement was also seen
SMILES: O=C(O)CN(CC(=O)O)CC(=O)O [NTA, nitrilotriacetic acid]
biodistribution on in vivo MR imaging ([3]; mouse, in vivo, iv): consistent with release of free Mn and hepatocellular uptake

SMILES: Cc1nn(-c2ccc(C(N)=O)c(NCCCOCCOCCOCCOCCOCCCNC(=O)CC(P(=O)(O)O)P(=O)(O)O)c2)c2c1C(=O)CC(C)(C)C2 [Scheme 1B]
enhancement in 4T1 tumors (4T1 tumor): progressive accumulation of enhancement in 4T1 tumors that is greater than what is seen for the paramagnetic coordination complex alone

SMILES: Cc1nn(-c2ccc(C(N)=O)c(NCCCOCCOCCOCCOCCOCCCC(=O)NCCCC(O)(P(=O)(O)O)P(=O)(O)O)c2)c2c1C(=O)CC(C)(C)C2 [Scheme 1C]
enhancement in 4T1 tumors (4T1 tumor): progressive accumulation of enhancement in 4T1 tumors that is greater than what is seen for the paramagnetic coordination complex alone

SMILES: Cc1ncc(COP(=O)([O-])[O-])c(CN(CCN(CC(=O)[O-])Cc2c(COP(=O)([O-])[O-])cnc(C)c2[O-])CC(=O)[O-])c1[O-].[H+].[H+].[H+].[Mn+2].[Na+].[Na+].[Na+] [Teslascan]
in vivo distribution behaviour [4]: immediately distributed to the liver, releasing free Mn
